Measurements reported in article PMC12449476, “Transient ligand contacts of the intrinsically disordered N-terminus of neuropeptide Y2 receptor regulate arrestin-3 recruitment” (Nature Communications, 2025).

Assays:
[1] = tested on: bicelle-reconstituted full-length cysteine-deficient Y2R; assay: XL-MS competition experiment; type: binding, human; conditions: 50 × molar excess competitor
Method: (§1) Samples were denatured in 10% SDS, 100 mM Tris-HCl (pH 7.5) and subjected to S-Trap enrichment (Protifi, Fairport, NY, USA). Afterwards, proteins were reduced, alkylated, and enzymatically digested with AspN and trypsin according to an existing protocol. Samples were stored at − 20 °C before LC-MS analysis.

[2] = target: T1, WT Nluc-Y2R-eYFP (Homo sapiens, UniProt P49146); conditions: small molecule antagonist vs labeled NPY; cited from earlier work
T1 construct: expressed in transfected cells; host or cells: membrane preparations of transiently transfected HEK293
T1 sequence (P49146 1-381): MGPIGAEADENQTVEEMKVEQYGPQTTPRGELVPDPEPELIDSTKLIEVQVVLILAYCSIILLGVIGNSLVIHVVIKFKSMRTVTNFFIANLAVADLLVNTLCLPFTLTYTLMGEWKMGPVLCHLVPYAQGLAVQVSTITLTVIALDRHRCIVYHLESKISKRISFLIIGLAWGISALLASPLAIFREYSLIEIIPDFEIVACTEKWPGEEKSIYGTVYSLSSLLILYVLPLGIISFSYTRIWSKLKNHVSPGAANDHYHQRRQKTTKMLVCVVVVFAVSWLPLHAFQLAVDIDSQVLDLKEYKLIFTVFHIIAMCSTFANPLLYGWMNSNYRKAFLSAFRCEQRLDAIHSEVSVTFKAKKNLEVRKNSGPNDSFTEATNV
Text: In the following, we are addressing the Reviewer’s comments point‐by‐point. We quote statements from the Reviewer in bold face. We refer to changes made in the manuscript in yellow italics. Reviewer #1 (Remarks to the Author): In this work ...

[3] = tested on: photo-NPY; assay: XL-MS, intramolecular NPY cross-links; type: binding; conditions: detected in N-term peptide experiment only
Method: as §1
Peptide mixtures were reconstituted in an aqueous solution of 3% (v/v) ACN and 0.05% (v/v) TFA prior to LC-TIMS-MS/MS analysis on an UltiMate 3000 RSLC nano-HPLC system (Thermo Fisher Scientific, Waltham, MA, USA) coupled to a timsTOF Pro mass spectrometer (Bruker Daltonics, Bremen, Germany). Peptides were trapped and desalted on a C18 precolumn (Acclaim PepMap 100, 300 μm × 5 mm, 5 μm, 100 Å, Thermo Fisher Scientific, Waltham, MA, USA) with aqueous 0.1 % (v/v) TFA at a flow rate of 30 μL/min (precolumn temperature 50 °C). […]
Identification of cross-links was performed by a MeroX (v. 2.0.1.7, ref. [77]) search against a fasta file containing the amino acid sequences of triply diazirine-substituted [L17pL, L24pL, L30pL] […] In addition, DDA-PASEF data were analyzed with Skyline[78] as described recently. […]

[4] = tested on: bicelle-reconstituted full-length cysteine-deficient Y2R; assay: XL-MS with full-length Y2R; type: binding, human; conditions: LC-TIMS-MS/MS
Method: as §1
Peptide mixtures were reconstituted in an aqueous solution of 3% (v/v) ACN and 0.05% (v/v) TFA prior to LC-TIMS-MS/MS analysis on an UltiMate 3000 RSLC nano-HPLC system (Thermo Fisher Scientific, Waltham, MA, USA) coupled to a timsTOF Pro mass spectrometer (Bruker Daltonics, Bremen, Germany). Peptides were trapped and desalted on a C18 precolumn (Acclaim PepMap 100, 300 μm × 5 mm, 5 μm, 100 Å, Thermo Fisher Scientific, Waltham, MA, USA) with aqueous 0.1 % (v/v) TFA at a flow rate of 30 μL/min (precolumn temperature 50 °C). Using a flow of 300 nL/min, peptide mixtures were then eluted and separated on a self-packed Picofrit C18 column, 75 µm ID x 40 cm, Tip ID 15 µm (New Objective, Littleton, MA, USA), packed with Reprosil-Pur 120 C18-AQ, 3 µm, 120 Å material (Dr. Maisch GmbH, Ammerbuch, Germany) or a µPAC 50 C18 column (PharmaFluidics, Thermo Fisher Scientific, Germany). Linear gradients were from 3% to 50% B over 90 min, 50% to 85% B (over 5 min) and 85% B (5 min); solvent A: water containing 0.1% (v/v) formic acid and solvent B: acetonitrile containing 0.1% (v/v) formic acid, the separation column was kept at 40 °C. To align results obtained with different chromatographic conditions, unmodified peptides were used as indexed retention time (iRT) standards.
Identification of cross-links was performed by a MeroX (v. 2.0.1.7, ref. [77]) search against a fasta file containing the amino acid sequences of triply diazirine-substituted [L17pL, L24pL, L30pL] […] The following settings were employed: semi-specific proteolytic cleavage: C-terminal at Lys and ArgR and N-terminal at Asp and Glu with up to 3 missed cleavages for each site and a maximum of 5 missed cleavages per peptide; peptide length of 4–25 amino acids; fixed modifications: carbamidomethylation of Cys; variable modifications: oxidation of Met; precursor and fragment mass tolerances were set to 10 ppm. […] Two searches were performed per data set, considering photo-leucine reactivity towards (i) only the acidic amino acids Asp and Glu and the protein C-terminus and (ii) reactivity towards all 20 amino acids. Peptide spectral matches were initially filtered to a 10% intensity score, a minimum score cut-off of 30 and 1% FDR (false discovery rate). Lenient FDR filters were compensated by manual validation of all proposed cross-links. In addition, DDA-PASEF data were analyzed with Skyline[78] as described recently. […]

## CCN(CC)C(=O)C(c1ccccc1)N1CCN(c2ccc(NC(=O)c3ccccc3-c3cccnc3)cc2F)CC1 (stereo not shown) [JNJ-31020028, N-(4-{4-[2-(diethylamino)-2-oxo-1-phenylethyl]piperazin-1-yl}-3-fluorophenyl)-2-pyridin-3-ylbenzamide]
[1]
  Effect of excess unlabeled ligand on cross-links: essentially abolished all cross-links
[2]
  Blocking of high- and low-affinity binding: can be blocked

## photo-NPY: triply diazirine-substituted photo-leucine [L17pL, L24pL, L30pL] NPY variant
[3]
  Intra-NPY cross-linked positions: pL30 & D6
[4]
  Number of contact points to Y2R NT: 16
  Number of contacts to ECL2: three
  Number of cross-links to extracellular regions of Y2R: 34
[4]; total
  Number of peptide-receptor cross-links: 40
